The values below are quoted from earlier work in PMC3159814 (Bioorganic & medicinal chemistry letters, 2011).

The test system of the series is GnRH receptor.

For the substance “1,4,7,10-tetraazacyclododecane-1,4,7,10-tetraacetic acid (DOTA)-Ahx-(D-Lys^6-GnRH1) [DOTA-Ahx-(D-Lys^6-GnRH1)]”, the “GnRH receptor binding affinity” value is 36.1 nM.
